Measurements taken from patent US20240360082A1, “SUBSTITUTED PYRIDONE COMPOUNDS USEFUL TO TREAT ORTH[…]” (priority 2021, published 2024).

Target: influenza A virus minigenome (PB2, PB1, PA, NP proteins) (UniProt P04665)
Assay type: cell-based
Settings: read-out: RNP_ Hubei B IC50

Chain of influenza A virus minigenome (PB2, PB1, PA, NP proteins) (P04665 whole entry): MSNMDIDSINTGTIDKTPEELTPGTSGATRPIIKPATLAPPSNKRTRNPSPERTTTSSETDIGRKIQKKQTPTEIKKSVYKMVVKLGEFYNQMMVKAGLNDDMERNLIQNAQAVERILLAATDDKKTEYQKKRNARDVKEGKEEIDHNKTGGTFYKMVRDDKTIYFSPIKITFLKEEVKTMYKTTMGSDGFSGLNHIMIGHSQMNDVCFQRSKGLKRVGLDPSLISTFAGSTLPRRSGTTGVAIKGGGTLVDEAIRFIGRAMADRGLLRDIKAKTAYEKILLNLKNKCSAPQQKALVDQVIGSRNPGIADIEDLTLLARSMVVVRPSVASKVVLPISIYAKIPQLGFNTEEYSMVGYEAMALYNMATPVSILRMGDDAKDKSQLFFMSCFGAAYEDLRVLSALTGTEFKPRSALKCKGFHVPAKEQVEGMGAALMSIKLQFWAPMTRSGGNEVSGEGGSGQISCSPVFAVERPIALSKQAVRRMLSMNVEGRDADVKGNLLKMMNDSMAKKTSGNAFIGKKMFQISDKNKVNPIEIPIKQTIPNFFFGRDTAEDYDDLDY

SMILES	IC50 [µM]
NC(=O)c1cc(-c2ccc(OC[C@H]3CO[C@H]4[C@@H](O3)C4(F)F)cc2)c(C(F)(F)F)[nH]c1=O [Example 391, 5-(4-((trans-7,7-difluoro-2,5-dioxabicyclo[4.1.0]heptan-3-yl)methoxy)phenyl)-2-oxo-6-(trifluoromethyl)-1,2-dihydropyridine-3-carboxamide]	1 to 5
C[C@]12O[C@H](COc3ccc(-c4cc(C(N)=O)c(=O)[nH]c4C(F)(F)F)cc3)CO[C@H]1C2(F)F [Example 394, 5-(4-(((1S,3S,6R)-7,7-difluoro-1-methyl-2,5-dioxabicyclo[4.1.0]heptan-3-yl)methoxy)phenyl)-2-oxo-6-(trifluoromethyl)-1,2-dihydropyridine-3-carboxamide]	5 to 10
C[C@@]12O[C@H](COc3ccc(-c4cc(C(N)=O)c(=O)[nH]c4C(F)(F)F)cc3)CO[C@@H]1C2(F)F [Example 395, 55-(4-(((1R,3S,6S)-7,7-difluoro-1-methyl-2,5-dioxabicyclo[4.1.0]heptan-3-yl)methoxy)phenyl)-2-oxo-6-(trifluoromethyl)-1,2-dihydropyridine-3-carboxamide]	5 to 10
C[C@@]12O[C@@H](COc3ccc(-c4cc(C(N)=O)c(=O)[nH]c4C(F)(F)F)cc3)CO[C@@H]1C2(F)F [Example 396, 5-(4-(((1R,3R,6S)-7,7-difluoro-1-methyl-2,5-dioxabicyclo[4.1.0]heptan-3-yl)methoxy)phenyl)-2-oxo-6-(trifluoromethyl)-1,2-dihydropyridine-3-carboxamide]	5 to 10
C[C@]12O[C@@H](COc3ccc(-c4cc(C(N)=O)c(=O)[nH]c4C(F)(F)F)cc3)CO[C@H]1C2(F)F [Example 397, 5-(4-(((1S,3R,6R)-7,7-difluoro-1-methyl-2,5-dioxabicyclo[4.1.0]heptan-3-yl)methoxy)phenyl)-2-oxo-6-(trifluoromethyl)-1,2-dihydropyridine-3-carboxamide]	5 to 10
COC[C@H]1COC[C@@H](COc2ccc(-c3cc(C(N)=O)c(=O)[nH]c3C(F)(F)F)cc2)O1 [Example 398, 5-(4-(((2S,6S)-6-(methoxymethyl)-1,4-dioxan-2-yl)methoxy)phenyl)-2-oxo-6-(trifluoromethyl)-1,2-dihydropyridine-3-carboxamide]	5 to 10
COC[C@@H]1COC[C@@H](COc2ccc(-c3cc(C(N)=O)c(=O)[nH]c3C(F)(F)F)cc2)O1 [Example 399, 5-(4-(((2S,6R)-6-(methoxymethyl)-1,4-dioxan-2-yl)methoxy)phenyl)-2-oxo-6-(trifluoromethyl)-1,2-dihydropyridine-3-carboxamide]	5 to 10
CC(C)OC[C@H]1COC[C@@H](COc2ccc(-c3cc(C(N)=O)c(=O)[nH]c3C(F)(F)F)cc2)O1 [Example 402, 5-(4-(((2S,6R)-6-(isopropoxymethyl)-1,4-dioxan-2-yl)methoxy)phenyl)-2-oxo-6-(trifluoromethyl)-1,2-dihydropyridine-3-carboxamide]	5 to 10
NC(=O)c1cc(-c2ccc(OC[C@@H]3COC[C@H](C4CC4)O3)cc2)c(C(F)(F)F)[nH]c1=O [Example 404, 5-(4-(((2S,6S)-6-cyclopropyl-1,4-dioxan-2-yl)methoxy)phenyl)-2-oxo-6-(trifluoromethyl)-1,2-dihydropyridine-3-carboxamide]	10 to 25
COC[C@@]1(C)COC[C@@H](COc2ccc(-c3cc(C(N)=O)c(=O)[nH]c3C(F)(F)F)cc2)O1 [Example 405, 5-(4-(((2S,6S)-6-(methoxymethyl)-6-methyl-1,4-dioxan-2-yl)methoxy)phenyl)-2-oxo-6-(trifluoromethyl)-1,2-dihydropyridine-3-carboxamide]	5 to 10
COC[C@]1(C)COC[C@@H](COc2ccc(-c3cc(C(N)=O)c(=O)[nH]c3C(F)(F)F)cc2)O1 [Example 406, 5-(4-(((2S,6R)-6-(methoxymethyl)-6-methyl-1,4-dioxan-2-yl)methoxy)phenyl)-2-oxo-6-(trifluoromethyl)-1,2-dihydropyridine-3-carboxamide]	5 to 10
COC[C@]1(C)COC[C@H](COc2ccc(-c3cc(C(N)=O)c(=O)[nH]c3C(F)(F)F)cc2)O1 [Example 407, 5-(4-(((2R,6R)-6-(methoxymethyl)-6-methyl-1,4-dioxan-2-yl)methoxy)phenyl)-2-oxo-6-(trifluoromethyl)-1,2-dihydropyridine-3-carboxamide]	5 to 10
COC[C@@]1(C)COC[C@H](COc2ccc(-c3cc(C(N)=O)c(=O)[nH]c3C(F)(F)F)cc2)O1 [Example 408, 5-(4-(((2R,6S)-6-(methoxymethyl)-6-methyl-1,4-dioxan-2-yl)methoxy)phenyl)-2-oxo-6-(trifluoromethyl)-1,2-dihydropyridine-3-carboxamide]	5 to 10
CN(C)C(=O)[C@@]1(C)COC[C@@H](COc2ccc(-c3cc(C(N)=O)c(=O)[nH]c3C(F)(F)F)cc2)O1 [Example 409, 5-(4-(((2S,6R)-6-(dimethylcarbamoyl)-6-methyl-1,4-dioxan-2-yl)methoxy)phenyl)-2-oxo-6-(trifluoromethyl)-1,2-dihydropyridine-3-carboxamide]	5 to 10
[2H]C([2H])([2H])OC[C@@]1(C)COC[C@@H](COc2ccc(-c3cc(C(N)=O)c(=O)[nH]c3C(F)(F)F)cc2)O1 [Example 410, 5-(4-(((2S,6S)-6-((methoxy-d3)methyl)-6-methyl-1,4-dioxan-2-yl)methoxy)phenyl)-2-oxo-6-(trifluoromethyl)-1,2-dihydropyridine-3-carboxamide]	5 to 10
C[C@]1(CC#N)COC[C@@H](COc2ccc(-c3cc(C(N)=O)c(=O)[nH]c3C(F)(F)F)cc2)O1 [Example 411, 5-(4-(((2S,6S)-6-(cyanomethyl)-6-methyl-1,4-dioxan-2-yl)methoxy)phenyl)-2-oxo-6-(trifluoromethyl)-1,2-dihydropyridine-3-carboxamide]	5 to 10
C[C@]1(CS(C)(=O)=O)COC[C@@H](COc2ccc(-c3cc(C(N)=O)c(=O)[nH]c3C(F)(F)F)cc2)O1 [Example 412, 5-(4-(((2S,6R)-6-methyl-6-((methylsulfonyl)methyl)-1,4-dioxan-2-yl)methoxy)phenyl)-2-oxo-6-(trifluoromethyl)-1,2-dihydropyridine-3-carboxamide]	5 to 10
C[C@]1(CS(=O)(=O)C2CC2)COC[C@@H](COc2ccc(-c3cc(C(N)=O)c(=O)[nH]c3C(F)(F)F)cc2)O1 [Example 413, 5-(4-(((2S,6R)-6-((cyclopropylsulfonyl)methyl)-6-methyl-1,4-dioxan-2-yl)methoxy)phenyl)-2-oxo-6-(trifluoromethyl)-1,2-dihydropyridine-3-carboxamide]	5 to 10
COCC1(COC)COC[C@@H](COc2ccc(-c3cc(C(N)=O)c(=O)[nH]c3C(F)(F)F)cc2)O1 [Example 414, (S)-5-(4-((6,6-bis(methoxymethyl)-1,4-dioxan-2-yl)methoxy)phenyl)-2-oxo-6-(trifluoromethyl)-1,2-dihydropyridine-3-carboxamide]	5 to 10
NC(=O)c1cc(-c2ccc(OC[C@@H]3COCC4(COC4)O3)cc2)c(C(F)(F)F)[nH]c1=O [Example 415, (S)-5-(4-((2,5,8-trioxaspiro[3.5]nonan-6-yl)methoxy)phenyl)-2-oxo-6-(trifluoromethyl)-1,2-dihydropyridine-3-carboxamide]	5 to 10
